Drawing on patent US7846950B2, “Histamine H3 receptor inhibitors, preparation and therapeutic uses” (Eli Lilly and Company, priority 2004, dated 2010), this text covers Ki for 2 molecules.

The target in this test is T1, human histamine 3 receptor (Homo sapiens, UniProt Q9Y5N1).
T1 construct: expressed in transfected cells; membranes
Kind of test: H3R binding assay (competitive inhibition SPA, [3H] alpha-methylhistamine, HEK293 H3R8 membranes). Conditions: read-out: Human H3 Receptor Ki. The text has this:
The compounds of the present invention can readily be evaluated by using a competitive inhibition Scintillation Proximity Assay (SPA) based on a H3R binding assay using [3H] α methylhistamine as ligand. Stable cell lines, including but not limited to HEK can be transfected with cDNA coding for H3R to prepare membranes used for the binding assay. The technique is illustrated below (Preparation of Histamine Receptor Subtype Membranes) for the histamine receptor subtypes.
cDNA for the human histamine 1 receptor (H1R) was cloned into a mammalian expression vector containing the CMV promoter (pcDNA3.1(+), Invitogen) and transfected into HEK293 cells using the FuGENE Tranfection Reagent (Roche Diagnostics Corporation). Transfected cells were selected using G418 (500 μ/mL). Colonies that survived selection were grown and tested for histamine binding to cells grown in 96-well dishes using a scintillation proximity assay (SPA) based radioligand binding assay. Briefly, cells, representing individual selected clones, were grown as confluent monolayers in 96-well dishes (Costar Clear Bottom Plates, #3632) by seeding wells with 25,000 cells and growing for 48 hours (37° C., 5% CO2). […] Plates were counted in a Wallac Trilux 1450 Microbeta scintillation counter. […]
cDNA for the human histamine 3 receptor was cloned and expressed as described in (A. Preparation H1R membranes), above. […]

T1 sequence (Q9Y5N1 whole entry): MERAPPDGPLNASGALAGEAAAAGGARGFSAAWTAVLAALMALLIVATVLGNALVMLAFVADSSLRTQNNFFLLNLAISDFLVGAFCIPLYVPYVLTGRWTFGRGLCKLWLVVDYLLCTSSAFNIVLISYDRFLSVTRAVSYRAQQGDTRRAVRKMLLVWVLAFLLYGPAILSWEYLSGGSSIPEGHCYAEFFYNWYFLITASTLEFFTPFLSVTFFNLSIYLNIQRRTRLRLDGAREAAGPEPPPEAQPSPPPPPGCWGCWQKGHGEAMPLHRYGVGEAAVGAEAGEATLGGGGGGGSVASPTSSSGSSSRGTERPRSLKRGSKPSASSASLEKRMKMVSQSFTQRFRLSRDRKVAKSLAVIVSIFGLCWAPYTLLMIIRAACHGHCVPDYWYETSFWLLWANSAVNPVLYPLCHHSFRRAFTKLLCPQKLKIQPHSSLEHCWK

What is called Ki is the dissociation constant of the complex between target and ligand, obtained from inhibition or displacement. With `O=C(c1ccc(OCc2ccco2)cc1)N1CCC[C@H]1CN1CCCC1`, the Ki was 6.2 nM. The result for `C[C@@H]1CCCN1C[C@@H]1CCCN1C(=O)c1ccc(OCc2ncon2)cc1F` reads 1.8 nM.
